For assay [1], the system named is magnesium deficiency-induced dermatosis in rat. The assay is described as follows: model of magnesium deficiency-induced dermatosis in rat. It counts as in vivo. Conditions: male hairless rats on low-magnesium diet, oral treatment at 6 mg/kg/day, 5 consecutive days. The text has this: Activity of mGluR5 antagonists as antipruritics according to the invention is evidenced for example in a model of magnesium deficiency-induced dermatosis in rat. This dermatosis is characterised by a transient erythematous maculopapular rash associated with a severe generalised pruritus. The animals scratch and bite themselves causing excoriations and wounds on the head and trunk (Neckermann G., Bavandi A., Meingassner J. G., Br. J. Dermatol; 2000; 142: 669-679). According to this model, male hairless rats (Ico:OFA hr/hr) obtained from Iffa Credo (Lyon, France) at an age of 3 weeks are maintained with a diet low in magnesium (C10350, Altromin, Lage, Germany) and demineralised water. After onset of symptoms, the test compound is applied orally to 5 rats per group on 5 consecutive days. Control animals are treated similarly with the vehicle alone. Efficacy is assessed by clinical examination and semiquantitative assessment of skin lesions. The intensity and extend of the erythematous maculopapular rash is scored with 0 (not present) to 4 (most severe changes, involvement of the whole trunk). The intensity of pruritus is evaluated by the scoring of excoriations at the head, shoulders, lateral abdomen/flanks and caudal dorsal trunk with 0 (not present), 1 (few lesions) or […] (numerous lesions) resulting in a combined maximal score of 12 per animal. […]

For assay [2], the system named is itch induced in mice by Compound 48/80. The assay can be described thus: model of itch induced in mice by injection of the pruritic agent Compound 48/80. It counts as in vivo. As to conditions: C57BL/6 mice, 30 μg/10 μl s.c. Compound 48/80, oral administration of 3-30 mg/kg and 10-100 mg/kg, 30 min prior, observed 30 minutes.
Method: Experiments are carried out on adult female and male C57BL/6 mice (25-30 g). Individual mice receive the test compound p.o. (a vehicle alone for control animals) 30 min. prior to subcutaneous injections of the above mentioned pruritic agent into the dorsal neck region and are then placed into a clear Perspex box. A maximum of 3 mice are closely and continuously observed by an experimenter for 30 minutes following injection. ‘Scratching episodes’ are defined as scratching focused at the site of injection using the hind paws, and differentiated from grooming behaviour that also involves licking and is systematically directed over all body regions. The duration of the itch behaviour is recorded by using a keyboard linked to three stop-clocks.

Take `Cc1cccc(C#Cc2cccnc2)n1` [2-[2-(pyridin-3-yl)ethynyl]-6-methyl-pyridine]: in assay [1], the “inflammatory skin reddening and infiltration” value is on record as “is not inhibited”; the “signs of pruritus (scoring of excoriations)” value is “inhibits signs of pruritus”. For the compound `Cc1cccc(C#Cc2ccccc2)n1` [2-methyl-6-phenylethynyl-pyridine], the “duration of scratching episodes induced by the pruritic agent” value in assay [2] was “significantly decreases”.

The values are drawn from US20040106582A1, “Use of mglur5 antagonists for the treatment of pruritic conditions” (priority 2001, published 2004).
